# Results published in EP0738149B1 (priority 1994, dated 1995).
# Where a name gives a salt, the structure may show the parent alone. Read-outs that look alike come from different tables or passages of the source.
# What was measured:
# [1] = tested on: rats; experiment: Maximal electroshock (MES) model in rats, p.o.;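 on all read-outs here: rat MES model gauging antiepileptic efficacy versus generalized and partial seizures after oral dosing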; format: in vivo; settings: for ED50: Rattus norvegicus, po; for RATS MES 50: p.o.
# [2] = in vivo; settings: rat, in vivo, po
# Procedure: (§1) Neurotoxicity of the claimed agents was also assessed in mice (i.p. administration) by the rotorod ataxia test and/or in rats (p.o. administration) by positional sense test and gait stance test. […] The term quantitating the neurotoxicity is the medial neurological toxic dose (TD50), was determined in the above tests.
# [3] = tested on: rats; experiment: Neurotoxicity in rats (positional sense test and gait stance test), p.o.; settings: rats, p.o.
# Procedure: as §1
# [4] = tested on: mice; experiment: Neurotoxicity in mice (rotorod ataxia test), i.p.
# Procedure: as §1
# [5] = Neurotoxicity in mice (rotorod ataxia test), i.p.; settings: mouse, in vivo, ip
# Procedure: as §1
# [6] = tested on: mice; experiment: Maximal electroshock (MES) model in mice, i.p.;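 on all read-outs here: Electroshock-induced convulsion model serving to demonstrate antiepileptic efficacy against generalized and partial seizures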; format: in vivo; settings: for ED50: Mus musculus, ip; for ED50 / MICE MES ED50: Table 15; for MICE MES ED50: i.p.
# [7] = tested on: mice; settings: for MICE scMet ED50: i.p.; for ED50: Mus musculus, ip
# [8] = tested on: rats; settings: Rattus norvegicus, po, read-out: RATS scMet ED50
# [9] = tested on: mechanically dissociated neonatal rat cerebellum; experiment: Reversal of NMDA induced cell death in cultures of neonatal rat cerebellum; format: cell-based; settings: for SURVIVING CELL IN CULTURE: relative to control (100%); for PERCENT PROTECTION: Cell Survival minus the NMDA effect
# Procedure: The cerebellum was aseptically dissociated from 6 or 7-day old rat pups and placed in a 15ml sterile plastic conical tube containing 3ml of Dulbecco's modified Eagle's medium (DMEM) with a high glucose concentration ([…]) and 2mM (v/v) L-glutamine and an antibiotic antimitotic mixture. The cerebella were then dissociated after 20-25 passages through a sterile 13 gauge, 10cm long stainless steel needle attached to a 5ml syringe with an inserted 45 micrometer pore nylon sieve. The dissociated cells were centrifuged at 200g for 5 minutes. The supernatant was discarded and the cells resuspended in medium enriched with 15% (v/v) heat inactivated fetal calf serum. Cell viability was determined by the tryptan blue exclusion test.
# Cells were plated at a density of 200/mm^2 on poly-L-lysine coated surfaces. Poly-L-lysine coated glass coverslips were prepared at least one hour in advance of plating by immersing sterile coverslips in sterile distilled water solution containing 15 microgram/ml poly-L-lysine, and washing in sterile water just prior to use. The plated cells were covered with enriched medium and incubated at 37°C in an atmosphere of 5% CO2 in air and 97% humidity. After three days in culture, the media was replaced with media containing the desired test compound. Each test compound was tested in duplicate. Toxic-dose response was determined for each compound.
# Four groups were run in each set of experiments; • I. Control, consisting of enriched media alone, • II. N-methyl-D-aspartate (NMDA, 1mM for 3 hours) as the cytotoxic challenge, • III. Test compound plus NMDA, and • IV. Positive control, spermine(0.01 micromoles) plus NMDA.
# Nerve cell survival was evaluated by phase contrast microscopy and tryptan blue staining after 24 hours.
# Surviving cells in culture are measured relative to control (100%), as described above. Percent protection is the Cell Survival for the test compound minus the NMDA effect. Thus, maximal protection is 100% minus 30% NMDA effect i.e. […]. The Effective Protection was calculated as the percent of the Percent Protection (X) divided by the maximal protection value (e.g. X x 100/70).
# [10] = tested on: Male mongolian gerbils; experiment: Global brain ischemia in gerbils (CA1 pyramidal neurons); format: in vivo; settings: 3 injections, fraction of hippocampi protected from ischemia, 14 days post-ischemia
# Procedure: Each artery was clamped for 5 minutes with aneurysm clips to produce global brain ischemia. The anesthesia was discontinued upon clamping. After 5 minutes the clamps were removed and the wound closed with skin clips.
# For treatment, the test compound or vehicle were injected intra-peritoneally (ip) in a volume of 50 microliters of solvent per 10g body weight. The first injection was given two minutes after clamp removal, and thereafter daily for the next 2 post-operative days (total of 3 injections).
# Seven groups each of 4-8 animals were compared: • I. Control; (sham- or unoperated and saline treated), • II. Vehicle treated, unoperated (when solvent is other than saline), • III. Ischemia - untreated or saline treated), • IV. Ischemia - vehicle treated (when solvent is other than saline), • V. Ischemia - Test compound treated, one sub-group per concentration tested, • VI. Ischemia and pentobarbital (40 mg/kg) as positive control).
# Analysis of neuronal damage was performed 14 days post-ischemia by counting pyramidal neurons throughout the CA1 layer of the anterior hippocampus in […] thick (paraffin) coronal brain sections stained with hematoxylin and erosin.
# Percent Protection values represent the fraction of hippocampi protected from ischemia in a group of animals treated with the stated dose of compound.
# [11] = tested on: male ICR albino mice; experiment: Hypobaric hypoxia survival time in mice; format: in vivo
# Procedure: Dessicator B was disconnected and allowed to equilibrate with room air whilst dessicator A was evacuated to a pressure of 100mmHg. […] The survival time from the moment of induction of hypoxia to the time of cessation of respiration was recorded for each mouse for a maximum of 15 minutes after which time room air was reintroduced to dessicator B. Survivors were monitored for signs of lethargy or vitality.
# Effect of drug treatment was assessed as the percent of the survival time of the drug treated group with respect to the saline injected or vehicle injected control group. Control groups were run twice, before and after each experimental group and consisted of 12-16 mice in groups of 4 mice. Each experimental group always consisted of 4 mice to ensure a constant residual volume of oxygen in all tests. The effect of each dose of test drug was determined in duplicate i.e. two groups of 4 mice.
# All drugs were administered intra-peritoneally at the dose indicated one hour prior to exposure to hypoxia.
# [12] = tested on: rats; experiment: Closed head injury in rats: motor function (Neurological Severity Status), Experiments 4A-4E
# [13] = read-out: MICE scMet ED50, mice, i.p., Table 16
# [14] = read-out: RATS MES 50, rats, p.o., Table 15
# [15] = Exp 4A, 0.1mg/kg i.p. at 0,4,8 and 12 hours post-trauma
# [16] = Exp 4B, 0.1mg/kg once a day for 14 days
compound,measurement,setting,value
"NC1CCc2ccccc21 (racemic) [A, 1-aminoindan]",ED50,[1]; read-out: RATS MES 50,36 mg/kg
same,TD50,[2],> 168 mg/kg
same,RATS TD50,[3]; Table 16,>168 mg/kg
same,MICE TD50,"[4]; mice, i.p., Table 16",>100 mg/kg
same,TD50,[5],> 100 mg/kg
"NC(=O)CNC1CCc2ccccc21 (racemic) [Example 3, (rac)-N-(2-Acetamido)-1-aminoindan.HCl]",ED50,[6],83 mg/kg
same,MICE MES ED50,[6],<100 mg/kg
same,RATS MES 50,[1]; Table 15,<50 mg/kg
same,TD50,[2],> 50 mg/kg
same,MICE scMet ED50,[7]; Table 16,36 mg/kg
same,MICE scMet ED50,"[7]; Table 16, listed as 3*",>130 mg/kg
same,MICE TD50,"[4]; mice, i.p., Table 15",>100 mg/kg
same,MICE TD50,"[4]; mice, i.p., Table 16",126 mg/kg
same,TD50,"[5]; MICE TD50, mice, Table 15",127 mg/kg
same,TD50,"[5]; MICE TD50, mice, Table 16",127 mg/kg
"NC(=O)CNC1CCc2ccc(F)cc21 (racemic) [Example 5, (rac)-6-Fluoro-N-(2-acetamido)-1-aminoindan.HCl]",ED50,[6],< 100 mg/kg
same,MICE MES ED50,[6],58 mg/kg
same,activity in the MES model in mice,[6]; statement in words,showed activity
same,ED50,[7]; [13],> 200 mg/kg
same,MICE TD50,"[4]; mice, i.p., Table 15",>300 mg/kg
same,TD50,"[5]; MICE TD50, mice, Table 16",138 mg/kg
"CN(C)C1CCc2ccccc21 (racemic) [Example 15, (rac)-N,N-Dimethyl-1-aminoindan.HCl]",RATS MES 50,[1]; Table 15,50 mg/kg
same,TD50,[2],> 50 mg/kg
same,RATS TD50,[3]; Table 16,>50 mg/kg
same,TD50,"[5]; MICE TD50, mice, Table 15",< 100 mg/kg
same,TD50,"[5]; MICE TD50, mice, Table 16",< 100 mg/kg
"O=C(NC1CCc2ccccc21)c1ccccc1 (racemic) [Example 46, (rac)-N-Benzoyl-1-aminoindan]",ED50,[6],82 mg/kg
same,ED50,[7]; [13],> 500 mg/kg
same,MICE TD50,"[4]; mouse, in vivo, ip",>500 mg/kg
same,TD50,[5]; MICE TD50,500 mg/kg
"Cl.NC(=O)CN[C@@H]1CCc2ccccc21 [D, (R)-Indanylglycinamide-HCl salt]",MICE MES ED50,[6],83 mg/kg
same,RATS MES 50,[1]; Table 15,105 mg/kg
same,RATS TD50,[3]; Table 15,>180 mg/kg
same,RATS TD50,[3]; Table 16,>180 mg/kg
same,MICE scMet ED50,[7]; Table 16,>130 mg/kg
same,MICE TD50,"[4]; mice, i.p., Table 15",127 mg/kg
same,MICE TD50,"[4]; mice, i.p., Table 16",127 mg/kg
"C#CCN[C@@H]1CCc2ccccc21.Cl [E, (R)-N-propargyl-1-aminoindan HCl salt]",ED50,[6],79 mg/kg
same,ED50,[1]; [14],< 50 mg/kg
same,ED50,[8],> 154 mg/kg
"NC(=O)CN[C@@H]1CCc2ccccc21 [Example 1, (R)-N-(2-Aeetamido)-1-aminoindan.HCl]",ED50,[6],77 mg/kg
same,RATS MES 50,[1]; Table 15,50 mg/kg
same,TD50,[2],> 50 mg/kg
same,RATS TD50,[3]; Table 16,>50 mg/kg
same,ED50,[7]; read-out: MICE scMet ED50,> 200 mg/kg
same,TD50,"[5]; MICE TD50, mice, Table 15",198 mg/kg
same,TD50,"[5]; MICE TD50, mice, Table 16",198 mg/kg
"CN[C@H]1CCc2ccccc21 [Example 14, (S)-N-Methyl-1-aminoindan.HCl]",TD50,[2],> 142 mg/kg
same,RATS TD50,[3]; Table 16,>142 mg/kg
same,TD50,"[5]; MICE TD50, mice, Table 15",100 mg/kg
same,TD50,"[5]; MICE TD50, mice, Table 16",100 mg/kg
"Cl.N[C@@H]1CCc2ccc(O)cc21 [Example 35, (R)-6-Hydroxy-1-aminoindan.HCl]",SURVIVING CELL IN CULTURE,[9]; 0.005 µM + NMDA 1mM for 3 hours,60%
same,PERCENT PROTECTION,[9]; 0.005 µM + NMDA,30%
same,EFFECTIVE PROTECTION,"[9]; 0.005 µM + NMDA, X x 100/70",43%
same,SURVIVING CELL IN CULTURE,[9]; 0.010 µM + NMDA 1mM for 3 hours,34%
same,PERCENT PROTECTION,[9]; 0.010 µM + NMDA,4%
same,EFFECTIVE PROTECTION,"[9]; 0.010 µM + NMDA, X x 100/70",6%
same,SURVIVING CELL IN CULTURE,[9]; 0.100 µM + NMDA 1mM for 3 hours,30%
same,PERCENT PROTECTION,[9]; 0.100 µM + NMDA,0%
same,EFFECTIVE PROTECTION,"[9]; 0.100 µM + NMDA, X x 100/70",0%
same,PERCENT PROTECTION,[10]; 0.1 mg/kg ip,25.0%
same,PERCENT PROTECTION,[10]; 1.0 mg/kg ip,37.5%
same,PERCENT PROTECTION,[10]; 10.0 mg/kg ip,37.5%
"C#CCN[C@H]1CCc2ccccc21.CS(=O)(=O)O [H, (S)-N-propargyl-1-aminoindan mesylate salt]",ED50,[6],≤ 50 mg/kg
same,ED50,[1]; [14],≤ 50 mg/kg
same,ED50,[7]; read-out: MICE scMet ED50,> 200 mg/kg
"N[C@H]1CCc2ccccc21 [SAI, (S)-1-aminoindan]",EFFECTIVE PROTECTION,"[9]; separate experiment, Maximum Protection possible 90%, 0.01 µM",43%
same,EFFECTIVE PROTECTION,"[9]; separate experiment, Maximum Protection possible 90%, 0.05 µM",57%
same,ED50,[1]; read-out: RATS MES 50,17 mg/kg
same,TD50,[2],> 500 mg/kg
same,RATS TD50,[3]; Table 16,>500 mg/kg
same,PROTECTION % OF RESPECTIVE CONTROL,[11]; 50 mg/kg ip one hour prior to hypoxia,174±39 % OF RESPECTIVE CONTROL
same,PROTECTION % OF RESPECTIVE CONTROL,[11]; 100 mg/kg ip one hour prior to hypoxia,404±244 % OF RESPECTIVE CONTROL
same,PROTECTION % OF RESPECTIVE CONTROL,[11]; dose cell empty (line below 50 mg/kg ip),264±66 % OF RESPECTIVE CONTROL
same,MICE TD50,"[4]; mice, i.p., Table 16",25 mg/kg
same,TD50,[5],25 mg/kg
same,PERCENT PROTECTION,[10]; 0.1 mg/kg ip,0%
same,PERCENT PROTECTION,[10]; 1.0 mg/kg ip,50.0%
same,PERCENT PROTECTION,[10]; 10.0 mg/kg ip,75.0%
same,NSS 1hr,[12]; [15],16.4
same,NSS 24hr,[12]; [15],10.8
same,ΔNSS,"[12]; Exp 4A, 0.1mg/kg i.p. at 0,4,8 and 12 hours post-trauma, change 1 hour to 24 hours",5.6±0.5
same,NSS at 1hr,[12]; [16],16.6±0.3
same,ΔNSS at 24hr,[12]; [16],5.5±0.4
same,ΔNSS at 48hr,[12]; [16],6.8±2.7
same,ΔNSS at 7d,[12]; [16],8.3±1.0
same,ΔNSS at 14d,[12]; [16],9.5±1.0
